{"source": "patent US20250090557A1", "about": "(priority 2020, published 2025)", "key": {"[1]": {"tested_on": "Calu3 cells"}, "[2]": {"tested_on": "Nrf2", "test": "Nrf2 protein levels in Calu3 cells (flow cytometry)", "format": "cell-based, human", "settings": "infected and uninfected Calu3, pretreatment, data not shown"}, "[3]": {"tested_on": "SARS-CoV-2", "format": "cell-based"}, "[4]": {"tested_on": "IL-6", "format": "cell-based, human"}, "[5]": {"tested_on": "Keap1", "test": "Keap1 protein levels in Calu3 cells (flow cytometry)", "format": "cell-based, human", "settings": "infected and uninfected Calu3, pretreatment, data not shown"}, "[6]": {"tested_on": "HO-1", "test": "HO-1 protein levels in Calu3 cells (flow cytometry)", "format": "cell-based, human"}, "[7]": {"tested_on": "uninfected cultures", "settings": "10-1000 nM"}, "[8]": {"settings": "Calu3, 0.25 μM pretreatment, data not shown"}}, "note": "“Also recorded” adds a separate entry of the source. Where a name gives a salt, the structure may show the parent alone. Read-outs that look alike come from different tables or passages of the source."}
{"compound": "COC(=O)/C=C/C(=O)OC", "note": "[DMF, dimethyl fumarate]", "values": [{"measurement": "cytotoxicity (XTT assay)", "setting": "[1]; uninfected Calu3, 100 μM, 24 h", "result": "cytotoxic"}, {"measurement": "protein levels of Nrf2", "setting": "[2]", "result": "did not impact protein levels of Nrf2"}, {"measurement": "viral titers / antiviral effect vs vehicle control (TCID50)", "setting": "[3]; Calu3, 10 μM DMF alone, FIG. 11-a", "result": "did not produce an observable antiviral effect; also recorded: did not reduce viral titers"}, {"measurement": "release of progeny SARS-CoV-2 virus particles to the cell supernatant (TCID50 assay)", "setting": "[3]; Calu3, pretreatment with 10 μM DMF for 24 h, FIG. 5-a", "result": "reduction in subsequent release of progeny SARS-CoV-2 virus particles"}, {"measurement": "release of IL-6 from infected cells (ELISA)", "setting": "[4]; Calu3, pretreatment 10 μM for 24 h", "result": "reduction in subsequent release of IL-6"}, {"measurement": "protein levels of Keap", "setting": "[5]", "result": "reduced protein levels of Keap"}, {"measurement": "HO-1 protein levels", "setting": "[6]; Calu3, pretreatment 10 μM, data not shown", "result": "increased HO-1 protein levels"}]}
{"compound": "brusatol", "values": [{"measurement": "protein levels of Nrf2", "setting": "[2]", "result": "reduced protein levels of Nrf2"}, {"measurement": "effect on the antiviral effect of DMF and Mito-MES (TCID50)", "setting": "[3]; Calu3, 0.25 μM pretreatment for 24 h", "result": "inhibited the antiviral effect of both DMF alone and Mito-MES"}, {"measurement": "SARS-CoV-2 infection (flow cytometry)", "setting": "[3]; [8]", "result": "directly enhanced SARS-CoV-2 infection"}, {"measurement": "effect on the reduction in percent infected cells induced by Mito-MES and DMF", "setting": "[3]; [8]", "result": "attenuated the reduction in the percent of infected Calu3 cells"}, {"measurement": "release of progeny SARS-CoV-2 virus particles to the cell supernatant (TCID50)", "setting": "[3]; Calu3, pretreatment with 0.25 μM", "result": "significantly increased subsequent release of progeny SARS-CoV-2 virus particles"}, {"measurement": "effect on the anti-inflammatory effect of Mito-MES (IL-6 ELISA)", "setting": "[4]; Calu3, 0.25 μM", "result": "inhibited the anti-inflammatory effect of Mito-MES"}, {"measurement": "release of IL-6 to the cell supernatant from infected cells (ELISA)", "setting": "[4]; Calu3, pretreatment 0.25 μM", "result": "significantly increased subsequent release of IL-6"}, {"measurement": "protein levels of Keap", "setting": "[5]", "result": "increased protein levels of Keap"}, {"measurement": "HO-1 protein levels", "setting": "[6]", "result": "increased the HO-1 protein levels"}, {"measurement": "impact on the effect of Mito-MES on HO-1 protein levels", "setting": "[6]; Calu3, 0.25 μM, data not shown", "result": "did not have an impact on the effect of Mito-MES on HO-1 protein levels"}]}
{"compound": "CC1(C)CC(NC(=O)C[P+](c2ccccc2)(c2ccccc2)c2ccccc2)CC(C)(C)N1[O]", "note": "[Mito-TEMPO]", "values": [{"measurement": "cytotoxicity (XTT assay)", "setting": "[7]", "result": "no observed cytotoxicity"}]}
{"compound": "CCCCCCCCCC[P+](c1ccccc1)(c1ccccc1)c1ccccc1.[Br-]", "note": "[DTPP]", "values": [{"measurement": "cytotoxicity (XTT assay)", "setting": "[1]; uninfected cells, 1000 nM", "result": "not cytotoxic"}, {"measurement": "antiviral activity (TCID50 assay)", "setting": "[3]; Calu3, 1000 nM", "result": "Antiviral activity was observed"}]}
